Measurements reported in patent US7638639B2, “Substituted pyrrolidine and related compounds” (Theravance, Inc., priority 2003, dated 2009).

Target: T1, hM3 muscarinic receptor subtype (Homo sapiens, UniProt P20309)
T1 construct: expressed in transfected cells
Assay: Radioligand binding assay ([3H]-NMS displacement), hM3
Protocol: A. Membrane Preparation from Cells Expressing hM1, hM2, hM3 and hM4 Muscarinic Receptor Subtypes
CHO (Chinese hamster ovary) cell lines stably expressing cloned human hM1, hM2, hM3 and hM4 muscarinic receptor subtypes, respectively, were grown to near confluency in medium consisting of HAM's F-12 supplemented with 10% FBS (Fetal Bovine Serum) and 250 μg/mL Geneticin. The cells were grown in a 5% CO2, 37° C. incubator and lifted with 2 mm EDTA in dPBS. Cells were collected by 5 minute centrifugation at 650×g, and cell pellets were either stored frozen at −80° C. or membranes were prepared immediately. For membrane preparation, cell pellets were resuspended in lysis buffer and homogenized with a Polytron PT-2100 tissue disrupter (Kinematica AG; 20 seconds×2 bursts). Crude membranes were centrifuged at 40,000×g for 15 minutes at 4° C. The membrane pellet was then resuspended with resuspension buffer and homogenized again with the Polytron tissue disrupter. The protein concentration of the membrane suspension was determined by the method described in Lowry, O. et al., 1951, […]: 193, 265. All membranes were stored frozen in aliquots at −80° C. or used immediately. Aliquots of prepared hM5 receptor membranes were purchased directly from Perkin Elmer and stored at −80° C. until use.
B. Radioligand Binding Assay on Muscarinic Receptor Subtypes hM1, hM2, hM3, hM4 and hM5
Radioligand binding assays were performed in 96-well microtiter plates in a total assay volume of 100 μL. CHO cell membranes stably expressing either the hM1, hM2, hM3, hM4 or hM5 muscarinic subtype were diluted in assay buffer to the following specific target protein concentrations (μg/well): 10 μg for hM1, 10-15 μg for hM2, 10-20 μg for hM3, 10-20 μg for hM4, and 10-12 μg for hM5. The membranes were briefly homogenized using a Polytron tissue disruptor (10 seconds) prior to assay plate addition. Saturation binding studies for determining KD values of the radioligand were performed using L-[N-methyl-3H]scopolamine methyl chloride ([^3H]-NMS) (TRK666, 84.0 Ci/mmol, Amersham Pharmacia Biotech, Buckinghamshire, England) at concentrations ranging from 0.001 nM to 20 nM. Displacement assays for determination of Ki values of test compounds were performed with [^3H]-NMS at 1 nM and eleven different test compound concentrations. The test compounds were initially dissolved to a concentration of 400 μM in dilution buffer and then serially diluted 5× with dilution buffer to final concentrations ranging from […] to […]. The addition order and volumes to the assay plates were as follows: 25 μL radioligand, 25 μL diluted test compound, and 50 μL membranes. Assay plates were incubated for 60 minutes at 37° C. Binding reactions were terminated by rapid filtration over GF/B glass fiber filter plates (PerkinElmer Inc., Wellesley, Mass.) pre-treated in 1% BSA. Filter plates were rinsed three times with wash buffer (10 mm HEPES) to remove unbound radioactivity. Plates were then air dried, and 50 μL Microscint-20 liquid scintillation fluid (PerkinElmer Inc., Wellesley, Mass.) was added to each well. The plates were then counted in a PerkinElmer Topcount liquid scintillation counter (PerkinElmer Inc., Wellesley, Mass.). Binding data were analyzed by nonlinear regression analysis with the GraphPad Prism Software package (GraphPad Software, Inc., San Diego, Calif.) using the one-site competition model. Ki values for test compounds were calculated from observed IC50 values and the KD value of the radioligand using the Cheng-Prusoff equation (Cheng Y; Prusoff W H. (1973) Biochemical Pharmacology, 22(23):3099-108). Ki values were converted to pKi values to determine the geometric mean and 95% confidence intervals. These summary statistics were then converted back to Ki values for data reporting.

T1 sequence (P20309 whole entry): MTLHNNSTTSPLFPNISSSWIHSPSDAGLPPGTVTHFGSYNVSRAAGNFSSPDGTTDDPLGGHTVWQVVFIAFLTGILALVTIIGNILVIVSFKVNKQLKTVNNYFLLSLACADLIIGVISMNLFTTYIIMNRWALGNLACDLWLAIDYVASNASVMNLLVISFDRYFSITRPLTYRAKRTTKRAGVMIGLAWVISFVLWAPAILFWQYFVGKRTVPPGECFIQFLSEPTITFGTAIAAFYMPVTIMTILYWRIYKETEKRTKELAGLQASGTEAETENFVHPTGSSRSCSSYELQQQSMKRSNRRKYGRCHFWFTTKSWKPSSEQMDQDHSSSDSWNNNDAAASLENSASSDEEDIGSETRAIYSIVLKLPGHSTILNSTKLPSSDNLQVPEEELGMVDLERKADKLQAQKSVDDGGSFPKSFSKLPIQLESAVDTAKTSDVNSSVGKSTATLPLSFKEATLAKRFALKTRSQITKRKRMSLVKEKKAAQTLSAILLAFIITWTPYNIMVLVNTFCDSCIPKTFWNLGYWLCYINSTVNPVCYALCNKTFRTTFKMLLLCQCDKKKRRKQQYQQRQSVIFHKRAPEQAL

For `CNCCCCCCCCN1CC[C@@H](C(C(N)=O)(c2ccccc2)c2ccccc2)C1` [Example 1, 2-[(S)-1-(8-Methylaminooctyl)pyrrolidin-3-yl]-2,2-diphenylacetamide], the Ki (CHO cell membranes, [3H]-NMS 1 nM, read-out: hM3 binding affinity (Ki)) was 0.96 nM and the “Δ hM3: change in binding affinity relative to compound of the invention” value (ratio of hM3 Ki values) was “×2.6”.
